Experimental data published in patent US10471044B2, “Post nerve injury rehabilitation effect-enhancing agent comprising alkyl ether derivative or salt thereof” (FUJIFILM Toyama Chemical Co., Ltd., priority 2014, dated 2019).

How the values were obtained:
[1] = system: forelimb function lost after internal capsule hemorrhage-induced brain injury; assay: Recovery by training of forelimb function lost after internal capsule hemorrhage-induced brain injury (mouse models); assay type: in vivo, C57BL/6J mice; conditions: mice, oral once a day 20 mg/kg/time plus training 30 min/day, evaluated 31-63 days after induction, compared to trained control group, FIG. 2
Procedure: Action of enhancing the recovery effect obtained by training the forelimb function lost after internal capsule hemorrhage-induced brain injury was examined, using internal capsule hemorrhage mouse models. A test was carried out using the following method, by referring to Plos One, Vol. 8, e67691 (2013) and Behav Brain Res., Vol. 20, Issue 225, Pages 126-34 (2011). Six-week-old male C57BL/6J mice (Charles River Japan) were used in the test. The mice were raised in an environment in which they had free access to feed and water, under a light-dark cycle of 12 hours (light period: 7:00-19:00, dark period: 19:00-7:00). The mice were randomly assigned to the groups. [table] An acrylic rectangular enclosure (length×width×height; 15×8.5×20 cm) in which only the front face of the four faces was transparent, and the other three faces were black was used. A slit measuring 0.5 cm in width×13 cm in height was formed on the right side of the front face when seen from the front. A transparent acrylic plate measuring 8.5 cm in width×1.25 cm in height was used as the feed plate. Diced almonds (K's Factory, Co., Ltd.) were used as the feed for use in the evaluation. […] A case where a mouse was able to extend the left forelimb through the slit, and carry the diced almond into the mouth without dropping it was determined to be successful. […]

[2] = system: upper limb function lost after brain injury; assay: Recovery by rehabilitation-like training of upper limb function lost after brain injury (internal capsule hemorrhage cynomolgus monkey models); assay type: in vivo, cynomolgus monkeys; conditions: 1 animal
Description: Test Example 3 Action of enhancing the recovery effect obtained with rehabilitation-like training of the upper limb function lost after brain injury was examined, using internal capsule hemorrhage cynomolgus monkey models.
Two male cynomolgus monkeys (Tsukuba Primate Research Center, National Institute of Biomedical Innovation) were used in the test. The cynomolgus monkeys were raised in a breeding cage for old world monkeys (length×width×height; 79×47×80 cm) in which they had free access to feed and water, under a light-dark cycle of 12 hours (light period: 7:00-19:00 dark period: 19:00-7:00).
Motor learning and an upper limb function evaluation were performed by making the cynomolgus monkeys take feed provided in front of the breeding cage. A 3.5- or 7 mm square piece of apple was used as the feed for use in the evaluation.
In order to allow the cynomolgus monkeys to acclimate to the testing apparatus, and determine the dominant hand of each of the individuals, a 7 mm square piece of apple attached to a needle tip was provided in the center of the front face of the cage, and the behavior of the cynomolgus monkey taking the feed was observed. The hand more often used in a total of 150 trials (30 trials a day for 5 days) was determined as its dominant hand. […]

[3] = system: forelimb function lost after freezing damage-induced brain injury; assay: Recovery by training of forelimb function lost after freezing damage-induced brain injury; assay type: in vivo, C57BL/6J mice; conditions: mice, oral twice a day 30 mg/kg/time plus training 30 min/day, evaluated 21-49 days after damage, compared to the other groups (control, Compound A without training, training only), FIG. 1
Procedure: Action of enhancing the recovery effect obtained by training the forelimb function lost after freezing damage-induced brain injury was examined. A test was performed using the following method, by referring to the method described in Journal of Neuroscience Methods, Vol. 193, Issue 1, Pages 82-85 (2010) and Nature, Vol. 462, Issue 7275, Pages 915-919 (2009). Six-week-old male C57BL/6J mice (Charles River Japan) were used in the test. The mice were raised in an environment in which they had free access to feed and water, under a light-dark cycle of 12 hours (light period: 7:00-19:00, dark period: 19:00-7:00). The mice were randomly assigned to the groups. [table] An acrylic rectangular enclosure (length×width×height; 15×8.5×20 cm) in which only the front face of the four faces was transparent, and the other three faces were black was used. A slit measuring 0.5 cm in width×13 cm in height was formed on the right side of the front face when seen from the front. A transparent acrylic plate measuring 8.5 cm in width×1.25 cm in height was used as the feed plate. Diced almonds (K's Factory, Co., Ltd.) were used as the feed for use in the evaluation. […] A case where a mouse was able to extend the left forelimb through the slit, and carry the diced almond into the mouth without dropping it was determined to be successful. […]

SMILES: OC1CN(CCCOCCc2ccc3sccc3c2)C1 [Compound A, 1-(3-(2-(1-benzothiophen-5-yl)ethoxy)propyl)azetidin-3-ol]
- relative recovery rate (success rate of taking feed with left forelimb) [1]: much higher relative recovery rate
- recovery after the brain injury (upper limb function) ([2]; intramuscular once a day 3 mg/kg/time plus rehabilitation-like training, versus trained animal without Compound A (recovery limited)): remarkable tendency to recovery was observed
- accurate grasping ([2]; intramuscular once a day 3 mg/kg/time, after the beginning of the rehabilitation-like training, not observed in animal without Compound A): accurate grasping similar to that before the brain injury was observed
- relative recovery rate (success rate of taking feed with left forelimb) [3]: much higher relative recovery rate within a short period
